Read-outs that look alike come from different tables or passages of the source.
Assays:
Ixodes ricinus = assay: In vitro Warm Plate Assay for ticks; format: in vivo
Procedure, shortened: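 Repellency against last-stage Ixodes ricinus nymphs in an in vitro warm plate assay, compounds diluted in ethanol at 0.4 and 10 mg/mL, 0.0016% to 1%, or 20% (w/w). Ticks walking down or falling from the treated plate scored as affected, walking up as unaffected; groups of 12 ticks, n=2-5.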

Aedes aegypti [1] = assay: In vivo arm in cage test on forearm of human volunteers; settings: 20% in ethanol on forearm; 0.05 h post application; three volunteers
Aedes aegypti [2] = assay: In vitro Warm Body assay, mosquitoes landing on treated warm body; format: in vivo; settings: for % of mosquitoes' repellency: normalised to landing with 100% ethanol
Procedure, shortened: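 Adapted Warm Body assay with host-seeking, non-blood-fed, sugar-fed A. aegypti Rockefeller females aged 5–10 days (10–12 days in one set); cages held 30 (or 25) females at 150 lux. Landings were counted automatically. Doses in ethanol were 0.0016%, 0.04% and 1% in triplicate, or a single replicate across 0.0016–1%.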

[3] = Aedes aegypti, read-out: decrease of landings

With Cc1ccc2c(c1)CC(C)(CO)C2 (stereo not shown) [ingredient #2, (2,5-dimethyl-2,3-dihydro-1H-inden-2yl)methanol] the “percentage of ticks being affected” value (Ixodes ricinus; 0.00032% (Table 9)) was 0%, the “MEAN % affected (ticks)” value (Ixodes ricinus; 0.4 mg/mL in ethanol (Table 5)) was 21% and the “percentage of ticks being affected” value (Ixodes ricinus; 0.00071% (Table 9)) was 15%. For the same compound, the “percentage of ticks being affected” value (Ixodes ricinus; 0.0016% (Table 9)) was 17%, the “percentage of ticks being affected” value (Ixodes ricinus; 0.00357% (Table 9)) was 0% and the “percentage of ticks being affected” value (Ixodes ricinus; 0.0053% (Table 9)) was 15%. The “percentage of ticks being affected” value (Ixodes ricinus; 0.008% (Table 9)) was 0%, the “MEAN % affected (ticks)” value (Ixodes ricinus; 10 mg/mL in ethanol (Table 5)) was 92% and the “percentage of ticks being affected” value (Ixodes ricinus; 0.0119% (Table 9)) was 8%. For the same compound, the “percentage of ticks being affected” value (Ixodes ricinus; 0.0178% (Table 9)) was 17%, the “percentage of ticks being affected” value (Ixodes ricinus; 0.0267% (Table 9)) was 38% and the “percentage of ticks being affected” value (Ixodes ricinus; 0.04% (Table 9)) was 0%. The “percentage of ticks being affected” value (Ixodes ricinus; 0.0598% (Table 9)) was 31%, the “percentage of ticks being affected” value (Ixodes ricinus; 0.089% (Table 9)) was 29% and the “percentage of ticks being affected” value (Ixodes ricinus; 0.2% (Table 9)) was 85%. For the same compound, the “percentage of ticks being affected” value (Ixodes ricinus; 0.447% (Table 9)) was 100%, the “ticks affected / not affected over 12 (in words)” value (Ixodes ricinus; 1%) was “only one tick over 12 was not affected” and the “percentage of ticks being affected” value (Ixodes ricinus; 1% (Table 9)) was 71%. For the same compound, the “percentage of ticks affected overtime” value (Ixodes ricinus; 20% (w/w) in ethanol, 0.25 h post-application) was 100%, the “percentage of ticks affected overtime” value (Ixodes ricinus; 20% (w/w) in ethanol, 0.5 h post-application) was 83% and the “percentage of ticks affected overtime” value (Ixodes ricinus; 20% (w/w) in ethanol, 1 h post-application) was 100%. The “percentage of ticks affected overtime” value (Ixodes ricinus; 20% (w/w) in ethanol, 2 h post-application) was 100%, the “percentage of ticks affected overtime” value (Ixodes ricinus; 20% (w/w) in ethanol, 4 h post-application) was 0% and the “percentage of ticks affected overtime” value (Ixodes ricinus; 20% (w/w) in ethanol, 6 h post-application) was 8%. For the same compound, the “ticks' repellency overtime (in words)” value (Ixodes ricinus; 20% (w/w) in ethanol, Table 14) was “better ticks' repellency than the known repellent”, the pest or weed control at 0.0016 % (Ixodes ricinus; Ixodes ricinus, 0.0016% (Table 11), read-out: percentage of ticks affected on the Warm Plate) was 8% and the pest or weed control at 0.0016 % (Ixodes ricinus; Ixodes ricinus, 0.0016% in ethanol (Table 12), read-out: percentage of ticks affected on the Warm Plate) was 17%. For the same compound, the pest or weed control at 0.0053 % (Ixodes ricinus; Ixodes ricinus, 0.0053% in ethanol (Table 12), read-out: percentage of ticks affected on the Warm Plate) was 15%, the pest or weed control at 0.008 % (Ixodes ricinus; Ixodes ricinus, 0.008% in ethanol (Table 12), read-out: percentage of ticks affected on the Warm Plate) was 0% and the pest or weed control at 0.0119 % (Ixodes ricinus; Ixodes ricinus, 0.0119% in ethanol (Table 12), read-out: percentage of ticks affected on the Warm Plate) was 8%. The pest or weed control at 0.0178 % (Ixodes ricinus; Ixodes ricinus, 0.0178% in ethanol (Table 12), read-out: percentage of ticks affected on the Warm Plate) was 17%, the pest or weed control at 0.0267 % (Ixodes ricinus; Ixodes ricinus, 0.0267% in ethanol (Table 12), read-out: percentage of ticks affected on the Warm Plate) was 38% and the pest or weed control at 0.04 % (Ixodes ricinus; Ixodes ricinus, 0.04% (Table 11), read-out: percentage of ticks affected on the Warm Plate) was 0%. The pest or weed control at 0.04 % (Ixodes ricinus; Ixodes ricinus, 0.04% in ethanol (Table 12), read-out: percentage of ticks affected on the Warm Plate) was 0%, the pest or weed control at 0.0598 % (Ixodes ricinus; Ixodes ricinus, 0.0598% in ethanol (Table 12), read-out: percentage of ticks affected on the Warm Plate) was 31% and the pest or weed control at 0.089 % (Ixodes ricinus; Ixodes ricinus, 0.089% in ethanol (Table 12), read-out: percentage of ticks affected on the Warm Plate) was 29%. For the same compound, the pest or weed control at 0.2 % (Ixodes ricinus; Ixodes ricinus, 0.2% in ethanol (Table 12), read-out: percentage of ticks affected on the Warm Plate) was 85%, the pest or weed control at 0.447 % (Ixodes ricinus; Ixodes ricinus, 0.447% in ethanol (Table 12), read-out: percentage of ticks affected on the Warm Plate) was 100% and the pest or weed control at 1 % (Ixodes ricinus; Ixodes ricinus, 1% (Table 11), read-out: percentage of ticks affected on the Warm Plate) was 92%. The pest or weed control at 1 % (Ixodes ricinus; Ixodes ricinus, 1% in ethanol (Table 12), read-out: percentage of ticks affected on the Warm Plate) was 71%, the “threshold concentration to be efficient to repel the ticks” value (Ixodes ricinus; Table 9) was “above 0.2%” and the ticks affected (Ixodes ricinus; dose of 0.89%) was 29%. The “% of repellency MEAN” value (Aedes aegypti [1]) was 99.1%, the “% of mosquitoes' repellency” value (Aedes aegypti [2]; 0.00032% concentration) was 18% and the “% of mosquitoes' repellency” value (Aedes aegypti [2]; 0.00071% concentration) was 46%. The “% of mosquitoes' repellency” value (Aedes aegypti [2]; 0.0016% concentration) was 14%, the “number of mosquitoes landed on the Warm Body” value (from here on “number of mosquitoes landed”) (Aedes aegypti [2]; 0.0016% in ethanol (Table 7, one replicate)) was 68 and the “% of mosquitoes' repellency” value (Aedes aegypti [2]; 0.0036% concentration) was 46%. For the same compound, the “% of mosquitoes' repellency” value (Aedes aegypti [2]; 0.0053% concentration) was 0%, the “% of mosquitoes' repellency” value (Aedes aegypti [2]; 0.0080% concentration) was 26% and the “number of mosquitoes landed” value (Aedes aegypti [2]; 0.008% in ethanol (Table 7, one replicate)) was 61. The “% of mosquitoes' repellency” value (Aedes aegypti [2]; 0.018% concentration) was 26%, the “% of mosquitoes' repellency” value (Aedes aegypti [2]; 0.040% concentration) was 61% and the “number of mosquitoes landed” value (Aedes aegypti [2]; 0.04% in ethanol (Table 7, one replicate)) was 22. For the same compound, the “% of mosquitoes' repellency” value (Aedes aegypti [2]; 0.089% concentration) was 60%, the “% of mosquitoes' repellency” value (Aedes aegypti [2]; 0.20% concentration) was 80% and the “number of mosquitoes landed” value (Aedes aegypti [2]; 0.2% in ethanol (Table 7, one replicate)) was 9. For the same compound, the “number of mosquitoes landed” value (Aedes aegypti [2]; 0.447% in ethanol (Table 7, one replicate)) was 3, the “% of mosquitoes' repellency” value (Aedes aegypti [2]; 0.45% concentration) was 93% and the “% of mosquitoes' repellency” value (Aedes aegypti [2]; 1% concentration) was 91%. The “number of mosquitoes landed” value (Aedes aegypti [2]; 1% in ethanol (Table 7, one replicate)) was 8, the pest or weed control at 0.0016 % (Aedes aegypti [2]; [3]) was 4 to 29% and the pest or weed control at 0.04 % (Aedes aegypti [2]; [3]) was about 70%. For the same compound, the “repulsion (in words)” value (Aedes aegypti [2]; concentrations lower than 0.04%) was “only low repulsion”.

— patent US20260068882A1, “ARTHROPOD CONTROLLING COMPOSITION” (Firmenich SA, priority 2019, published 2026)
